Measured values as given in patent EP4635500A1, “THERAPEUTIC AGENT FOR BACTERIAL INFECTION” (Sumitomo Pharma Co., Ltd., priority 2022, dated 2024).
≈ marks a conversion by molar mass, not a printed value. Like-named read-outs stand apart in the source and are kept apart here.

Tested on: Enterobacterales
Test: MIC, broth microdilution, CDC/FDA Antibiotic Resistance Isolate Bank (Example 7, Tables 8, 11, 12)
Format: cell-based

In the case of `CN(C)c1cc(NC(=O)CNC(C)(C)C)c(O)c2c1C[C@H]1C[C@H]3[C@H](N(C)C)C(=O)C(C(N)=O)=C(O)[C@@]3(O)C(=O)C1=C2O` [Tigecyeline], the MIC (Klebsiella pneumoniae, KUB No. 5576, AR Bank # 79) is reported as 0.5 µg/mL (≈ 0.854 µM), the MIC (Klebsiella pneumoniae, KUB No. 5577, AR Bank # 80) is reported as 0.25 µg/mL (≈ 0.427 µM) and the MIC (Klebsiella pneumoniae, KUB No. 5584, AR Bank # 87) is reported as 2 µg/mL (≈ 3.41 µM). For the same compound, the MIC (Klebsiella pneumoniae, KUB No. 5594, AR Bank # 97) was 1 µg/mL (≈ 1.71 µM), the MIC (Klebsiella pneumoniae, KUB No. 5595, AR Bank # 98) was 0.5 µg/mL (≈ 0.854 µM) and the MIC (Klebsiella pneumoniae, KUB No. 5603, AR Bank # 106) was 2 µg/mL (≈ 3.41 µM). It also gave an MIC (Klebsiella pneumoniae, KUB No. 5604, AR Bank # 107) of 0.25 µg/mL (≈ 0.427 µM), an MIC (Klebsiella pneumoniae, KUB No. 5606, AR Bank # 109) of 1 µg/mL (≈ 1.71 µM) and an MIC (Klebsiella pneumoniae, KUB No. 5609, AR Bank # 112) of 0.5 µg/mL (≈ 0.854 µM). The MIC (Klebsiella pneumoniae, KUB No. 5610, AR Bank # 113) was 0.5 µg/mL (≈ 0.854 µM), the MIC (Klebsiella pneumoniae, KUB No. 5612, AR Bank # 115) was 2 µg/mL (≈ 3.41 µM) and the MIC (Klebsiella pneumoniae, KUB No. 5614, AR Bank # 117) was 0.5 µg/mL (≈ 0.854 µM). It also gave an MIC (Klebsiella pneumoniae, KUB No. 5617, AR Bank # 120) of 0.5 µg/mL (≈ 0.854 µM), an MIC (Klebsiella pneumoniae, KUB No. 5622, AR Bank # 125) of 1 µg/mL (≈ 1.71 µM) and an MIC (Klebsiella pneumoniae, KUB No. 5623, AR Bank # 126) of 0.5 µg/mL (≈ 0.854 µM). The MIC (Klebsiella pneumoniae, KUB No. 5626, AR Bank # 129) was 1 µg/mL (≈ 1.71 µM), the MIC (Klebsiella pneumoniae, KUB No. 5632, AR Bank # 135) was 1 µg/mL (≈ 1.71 µM) and the MIC (Klebsiella pneumoniae, KUB No. 5635, AR Bank # 138) was 2 µg/mL (≈ 3.41 µM). For the same compound, the MIC (Klebsiella pneumoniae, KUB No. 5636, AR Bank # 139) was 0.5 µg/mL (≈ 0.854 µM), the MIC (Klebsiella pneumoniae, KUB No. 5637, AR Bank # 140) was 1 µg/mL (≈ 1.71 µM) and the MIC (Klebsiella pneumoniae, KUB No. 5638, AR Bank # 141) was 1 µg/mL (≈ 1.71 µM). It also gave an MIC (Klebsiella pneumoniae, KUB No. 5639, AR Bank # 142) of 1 µg/mL (≈ 1.71 µM), an MIC (Klebsiella pneumoniae, KUB No. 5640, AR Bank # 143) of 2 µg/mL (≈ 3.41 µM) and an MIC (Klebsiella pneumoniae, KUB No. 5642, AR Bank # 145) of 0.5 µg/mL (≈ 0.854 µM). For the same compound, the MIC (Klebsiella pneumoniae, KUB No. 5643, AR Bank # 146) was 1 µg/mL (≈ 1.71 µM), the MIC (Klebsiella pneumoniae, KUB No. 5645, AR Bank # 148) was 1 µg/mL (≈ 1.71 µM) and the MIC (Klebsiella pneumoniae, KUB No. 5649, AR Bank # 152) was 2 µg/mL (≈ 3.41 µM). It also gave an MIC (Klebsiella pneumoniae, KUB No. 5650, AR Bank # 153) of 1 µg/mL (≈ 1.71 µM), an MIC (Klebsiella pneumoniae, KUB No. 5655, AR Bank # 158) of 1 µg/mL (≈ 1.71 µM) and an MIC (Klebsiella pneumoniae, KUB No. 5657, AR Bank # 160) of 0.5 µg/mL (≈ 0.854 µM). The MIC (Klebsiella pneumoniae, Klebsiella pneumoniae KUB No. 5784, AR Bank #438) was 1 µg/mL (≈ 1.71 µM), the MIC (Klebsiella pneumoniae, Klebsiella pneumoniae KUB No. 5797, AR Bank #453) was 1 µg/mL (≈ 1.71 µM) and the MIC (Klebsiella pneumoniae, Klebsiella pneumoniae KUB No. 5809, AR Bank #504) was 1 µg/mL (≈ 1.71 µM). For the same compound, the MIC (Klebsiella pneumoniae, Klebsiella pneumoniae KUB No. 5810, AR Bank #505) was 0.5 µg/mL (≈ 0.854 µM), the MIC (Klebsiella pneumoniae, Klebsiella pneumoniae KUB No. 5811, AR Bank #506) was 2 µg/mL (≈ 3.41 µM) and the MIC (Klebsiella pneumoniae, Klebsiella pneumoniae KUB No. 5812, AR Bank #507) was 2 µg/mL (≈ 3.41 µM). It also gave an MIC (Klebsiella pneumoniae, Klebsiella pneumoniae KUB No. 5827, AR Bank #522) of 1 µg/mL (≈ 1.71 µM), an MIC (Klebsiella pneumoniae, Klebsiella pneumoniae KUB No. 5828, AR Bank #523) of 1 µg/mL (≈ 1.71 µM) and an MIC (Klebsiella pneumoniae, Klebsiella pneumoniae KUB No. 5829, AR Bank #524) of 1 µg/mL (≈ 1.71 µM). It also gave an MIC (Klebsiella pneumoniae, Klebsiella pneumoniae KUB No. 5830, AR Bank #525) of 1 µg/mL (≈ 1.71 µM), an MIC (Kluyvera ascorbata, KUB No. 5641, AR Bank # 144, read-out: MIC) of 2 µg/mL (≈ 3.41 µM) and an MIC (Morganella morganii, KUB No. 5554, AR Bank# 57) of 0.5 µg/mL (≈ 0.854 µM). The MIC (Morganella morganii, KUB No. 5630, AR Bank # 133, read-out: MIC) was 4 µg/mL (≈ 6.83 µM), the MIC (Proteus mirabilis, KUB No. 5556, AR Bank# 59) was 1 µg/mL (≈ 1.71 µM) and the MIC (Proteus mirabilis, KUB No. 5652, AR Bank # 155) was 2 µg/mL (≈ 3.41 µM). For the same compound, the MIC (Proteus mirabilis, KUB No. 5653, AR Bank # 156) was 1 µg/mL (≈ 1.71 µM), the MIC (Proteus mirabilis, KUB No. 5656, AR Bank # 159) was 2 µg/mL (≈ 3.41 µM) and the MIC (Providencia rettgeri, KUB No. 5579, AR Bank # 82) was 2 µg/mL (≈ 3.41 µM). The MIC (Raoultella ornithinolvtica, KUB No. 5631, AR Bank # 134, read-out: MIC) was 0.25 µg/mL (≈ 0.427 µM), the MIC (Salmonella enterica, Salmonella Senftenberg, KUB No. 5624, AR Bank # 127, read-out: MIC) was 0.5 µg/mL (≈ 0.854 µM) and the MIC (Serratia marcescens, KUB No. 5588, AR Bank # 91) was 0.5 µg/mL (≈ 0.854 µM). For the same compound, the MIC (Serratia marcescens, KUB No. 5596, AR Bank # 99) was 1 µg/mL (≈ 1.71 µM), the MIC (Serratia marcescens, KUB No. 5618, AR Bank # 121) was 1 µg/mL (≈ 1.71 µM) and the MIC (Serratia marcescens, KUB No. 5619, AR Bank # 122) was 1 µg/mL (≈ 1.71 µM). The MIC (Serratia marcescens, KUB No. 5620, AR Bank # 123) was 1 µg/mL (≈ 1.71 µM), the MIC (Serratia marcescens, KUB No. 5621, AR Bank # 124) was 1 µg/mL (≈ 1.71 µM) and the MIC (Serratia marcescens, KUB No. 5627, AR Bank # 130) was 1 µg/mL (≈ 1.71 µM). The MIC (Serratia marcescens, KUB No. 5628, AR Bank # 131) was 1 µg/mL (≈ 1.71 µM), the MIC (Serratia marcescens, Serratia marcescens KUB No. 5825, AR Bank #520) was 1 µg/mL (≈ 1.71 µM) and the MIC (Serratia marcescens, Serratia marcescens KUB No. 5826, AR Bank #521) was 2 µg/mL (≈ 3.41 µM).
